From patent US12208112B2, “Composition for treating blood cancer using 4′-thio-5-Aza-2′-deoxycytidine and uses thereof” (Southern Research Institute, priority 2020, dated 2025)

What was measured:
[1] = cited from earlier work
[2] = Animal PK, NCA parameters, dog; conditions: in vivo
[3] = in vivo; conditions: dog, iv, 0.33 mg/kg
[4] = Animal PK, NCA parameters, rat; conditions: in vivo
[5] = in vivo; conditions: mouse, iv, 1 mg/kg
[6] = in vivo; conditions: rat, iv, 1 mg/kg
[7] = Animal PK, NCA parameters, mouse; conditions: in vivo
[8] = test system: blood cancer mouse models; test: Blood cancer mouse models (summary statement); assay type: in vivo; conditions: 1.4 to 2.6 mpk PO for 5 days, 2-day break, 9-day break
[9] = test system: MV4-11 AML cells; test: Systemic AML model, MV4-11 AML cells transplanted into the bone marrow (survival, clinical observations)
[10] = Simulation of human PK using decitabine PK parameters; conditions: from animal parameters, used in human simulation
Source text: (§1) Without wishing to be bound by theory, this is excellent efficacy at a level that is impossible to reach by the same family of cytidine-based drugs such as decitabine or azacytidine, which was conventionally used, and according to conventional reports on Aza-T-dCyd, the level corresponds to a dose of a level expected to have toxicity.

[11] = molecular target: cytidine deaminase (Homo sapiens, UniProt P32320); conditions: compared to conventional compounds with a 5-azacytidine backbone; cited from earlier work
[12] = Absorption parameters over three species; assay type: in vivo, mice, rats, or dogs
Source text: Details are described in the next section. […] See also FIG. 3 and FIG. 7.
The human F calculated by the equation reported in literature was about 0.65 (from mouse), 0.59 (from rat), or 0.66 (from dog). See Musther et al. (2014) European Journal of Pharmaceutical Sciences 57: 280-291.

[13] = molecular target: DNMT1 (Homo sapiens, UniProt P26358); conditions: background statement; cited from earlier work
[14] = test system: Molm13 AML cells; test: Xenograft model with subcutaneously transplanted Molm13 AML cells; assay type: in vivo, mouse; conditions: 1.5 or 2.5 mpk PO, one cycle
[15] = test system: MV4-11 AML cells; test: Blood analysis (CBC sampling) in the systemic AML model; conditions: blood samples collected in the AML model experiment
[16] = test system: MV4-11 AML cells; test: Xenograft AML model with subcutaneously transplanted MV4-11 AML cells, alone and in combination with Venetoclax; assay type: in vivo, mouse; conditions: Aza-T-dCyd 2.0 mpk PO alone, Aza-T-dCyd 0.5 mpk with Venetoclax 50 mpk PO, Azacitidine 5.0 mpk IP alone
Source text: 5.0 mpk of Azacitidine alone; or 2.5 mpk of Azacitidine in combination of 50 mpk of Venetoclax were intraperitoneal (IP) administered as a control.

[17] = test system: MDS orthotopic animal models; conditions: reported in 2018; cited from earlier work
[18] = test system: normal mouse; test: Bone marrow toxicity after one-cycle PO administration to a normal mouse; assay type: in vivo
Source text: In the case of elderly patients who cannot receive bone marrow transplants, that is, the main targets of decitabine and azacytidine, toxicity in the bone marrow becomes the limit dose that determines a dose for administration, and, thus, the maximum dose that enables safe administration was to be determined.

[19] = Human PK parameter prediction by interspecies (allometric) scaling; conditions: for F_human (equation result): in % (unit assumed)
Source text: PK parameters were scaled allometrically and used to extrapolate the PK in a 70 kg human. Details are described in the next section.
Simple allometric scaling, was used to predict CL, Vc, Vp, and Q. Y is PK parameter, BW is body weight, a is the allometric coefficient, and b is the allometric exponent. Final PK parameters, CL, Vc, Vp, and Q, were extrapolated based on the best-fit-lines (FIG. 8).
See Musther et al. (2014) European Journal of Pharmaceutical Sciences 57: 280-291.
For absorption rate constant (Ka) and bioavailability (F), animal parameters were used.

[20] = Mouse PK (AUC); assay type: in vivo; conditions: for AUC: in vivo, mouse
Source text: as §1

[21] = human decitabine parameter used in simulation

Chain of cytidine deaminase (P32320 whole entry, species assumed): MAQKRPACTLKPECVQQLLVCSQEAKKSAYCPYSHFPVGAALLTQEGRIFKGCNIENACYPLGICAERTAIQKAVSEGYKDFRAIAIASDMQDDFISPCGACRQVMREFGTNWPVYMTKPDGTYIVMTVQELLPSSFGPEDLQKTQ
Chain of DNMT1 (P26358 whole entry, species assumed): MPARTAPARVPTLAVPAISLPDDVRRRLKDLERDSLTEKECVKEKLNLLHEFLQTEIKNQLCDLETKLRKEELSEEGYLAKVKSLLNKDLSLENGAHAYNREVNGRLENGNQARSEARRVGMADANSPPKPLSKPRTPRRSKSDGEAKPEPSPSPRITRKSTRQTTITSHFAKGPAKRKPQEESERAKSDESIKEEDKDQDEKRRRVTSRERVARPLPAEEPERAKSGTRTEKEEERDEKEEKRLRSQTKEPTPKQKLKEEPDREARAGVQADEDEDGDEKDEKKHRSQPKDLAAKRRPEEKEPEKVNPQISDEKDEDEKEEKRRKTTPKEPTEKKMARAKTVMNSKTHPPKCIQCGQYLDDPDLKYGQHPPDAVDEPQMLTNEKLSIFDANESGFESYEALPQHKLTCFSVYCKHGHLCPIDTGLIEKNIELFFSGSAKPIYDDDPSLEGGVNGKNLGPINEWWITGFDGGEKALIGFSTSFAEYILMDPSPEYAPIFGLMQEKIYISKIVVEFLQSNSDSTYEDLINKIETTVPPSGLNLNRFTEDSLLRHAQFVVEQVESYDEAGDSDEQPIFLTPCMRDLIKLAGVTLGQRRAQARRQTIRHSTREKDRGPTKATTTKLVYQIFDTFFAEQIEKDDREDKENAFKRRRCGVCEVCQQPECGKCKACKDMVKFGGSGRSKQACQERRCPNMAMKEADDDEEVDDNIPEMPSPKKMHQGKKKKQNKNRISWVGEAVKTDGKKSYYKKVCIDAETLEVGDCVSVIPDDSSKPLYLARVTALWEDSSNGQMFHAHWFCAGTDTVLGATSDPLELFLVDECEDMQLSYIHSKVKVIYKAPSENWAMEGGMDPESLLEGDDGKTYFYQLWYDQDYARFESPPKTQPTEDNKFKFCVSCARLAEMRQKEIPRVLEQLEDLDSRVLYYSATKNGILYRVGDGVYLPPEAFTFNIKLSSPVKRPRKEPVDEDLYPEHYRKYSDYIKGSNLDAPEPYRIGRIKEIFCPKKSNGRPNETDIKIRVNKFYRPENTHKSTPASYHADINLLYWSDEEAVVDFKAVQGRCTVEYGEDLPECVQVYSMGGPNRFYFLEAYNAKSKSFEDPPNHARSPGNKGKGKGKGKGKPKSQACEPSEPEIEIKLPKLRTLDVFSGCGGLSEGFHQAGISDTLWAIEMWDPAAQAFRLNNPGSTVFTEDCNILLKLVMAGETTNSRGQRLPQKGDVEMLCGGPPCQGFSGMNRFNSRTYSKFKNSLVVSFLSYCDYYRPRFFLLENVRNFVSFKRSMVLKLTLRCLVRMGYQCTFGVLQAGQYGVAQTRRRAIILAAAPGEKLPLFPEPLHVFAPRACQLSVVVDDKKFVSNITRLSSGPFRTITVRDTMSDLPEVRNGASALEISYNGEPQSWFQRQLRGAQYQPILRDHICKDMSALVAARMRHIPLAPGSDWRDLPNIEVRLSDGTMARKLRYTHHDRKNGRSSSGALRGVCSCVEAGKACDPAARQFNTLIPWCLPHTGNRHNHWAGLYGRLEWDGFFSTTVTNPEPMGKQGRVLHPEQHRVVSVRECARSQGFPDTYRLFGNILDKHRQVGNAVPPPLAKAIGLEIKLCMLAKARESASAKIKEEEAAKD

Q: What does the source list for Nc1ncn([C@H]2C[C@H](O)[C@@H](CO)O2)c(=O)n1 [decitabine, reference compound]?
A: Q Intercompartmental clearance [1, 21]: 23 L/h; Vc Central volume = V2 [1, 21]: 32 L; Vp Peripheral volume = V3 [1, 21]: 40 L; CL Clearance ([1]; human, reported in literature, used in human simulation): 152 L/h; AUC(0-inf) ([2]; iv, 0.33 mg/kg): 1080 ng·h/mL; C0 ([2]; iv, 0.33 mg/kg): 746 ng/mL; Vd ([2]; iv, 0.33 mg/kg): 0.476 L/kg; clearance ([2]; iv, 0.33 mg/kg): 5.17 mL/min/kg; half-life [3]: 1.19 h; AUC(0-inf) ([4]; iv, 1 mg/kg): 2370 ng·h/mL; C0 ([4]; iv, 1 mg/kg): 504 ng/mL; Vd ([4]; iv, 1 mg/kg): 2.16 L/kg; clearance ([4]; iv, 1 mg/kg): 7 mL/min/kg; half-life [5]: 0.4 h; half-life [6]: 3.71 h; AUC(0-inf) ([7]; iv, 1 mg/kg): 268 ng·h/mL; C0 ([7]; iv, 1 mg/kg): 579 ng/mL; Vd ([7]; iv, 1 mg/kg): 1.7 L/kg; clearance ([7]; iv, 1 mg/kg): 62.5 mL/min/kg

Q: What does the source list for Nc1ncn(C2CC(O)C(CO)S2)c(=O)n1 (stereo not drawn) [Aza-T-dCyd, 4′-Thio-5-aza-2′-deoxycytidine]?
A: anticancer effect [8]: significant anticancer effect; therapeutic efficacy against MDS/AML ([9]; 1.4 to 2.6 mpk based on a mouse): excellent therapeutic efficacy against MDS/AML; efficacy ([9]; 1.5 mpk PO, three cycles): an efficacy which did not reach that of the PO administration of 2.0 to 2.5 mpk of Aza-T-dCyd; clinical observations including body weight ([9]; 2.0 mpk PO, one cycle): stay in the normal range; clinical observations including mouse body weight ([9]; 2.0 mpk PO, three cycles): remained in the normal range; survival improvement ([9]; 2.0 mpk PO, three cycles): very excellent survival improvement; death of subjects ([9]; 2.5 mpk PO, three cycles): led to the death of some subjects; survival improvement ([9]; one cycle, Aza-T-dCyd 2.0 mpk PO, decitabine and azacytidine at optimal doses as controls): very excellent survival improvement; F Absolute bioavailability [10]: 0.6; Ka The first-order absorption rate constant [10]: 2.8 h⁻¹; rate of degradation by cytidine deaminase [11]: reduced rate of degradation by cytidine deaminase; bioavailability [2]: 68.7%; AUC(0-inf) ([2]; iv, 0.33 mg/kg): 1130 ng·h/mL; C0 ([2]; iv, 0.33 mg/kg): 586 ng/mL; Vd ([2]; iv, 0.33 mg/kg): 0.81 L/kg; clearance ([2]; iv, 0.33 mg/kg): 5 mL/min/kg; half-life ([2]; iv, 0.33 mg/kg): 2.25 h; average absorption rate constant (Ka) ([12]; average from three species): approximately 2.63 h^−1; bioavailability ([12]; mouse, rat, dog, in vivo, average from three species, read-out: average bioavailability (F)): ~54%; Tmax ([12]; mouse, rat, dog, in vivo, range of the three species): 0.25 to 2 h; DNMT removal and inhibitory activities in cells [13]: high DNMT removal and inhibitory activities in cells; anticancer efficacy [14]: excellent anticancer efficacy close to tumor regression; bioavailability [4]: 43.2%; AUC(0-inf) ([4]; iv, 1 mg/kg): 1900 ng·h/mL; C0 ([4]; iv, 1 mg/kg): 562 ng/mL; Vd ([4]; iv, 1 mg/kg): 3.53 L/kg; clearance ([4]; iv, 1 mg/kg): 8.83 mL/min/kg; half-life ([4]; iv, 1 mg/kg): 5.01 h; blood analysis: major parameters (WBC, neutrophil, platelet, RBC levels) [15]: no change in major parameters; anti-cancer effects (tumor volume) [16]: very excellent anti-cancer effects; toxicity [17]: so severe that therapeutic efficacy was not observed; change in the bone marrow ([18]; 2.5 mpk PO, one cycle): a significant change in the bone marrow started to be observed; viability and composition of each cell in the bone marrow ([18]; up to 2.0 mpk PO, one cycle (5 days, 2-day break, 5 days, 9-day break)): no significant change in the viability and composition of each cell in the bone marrow; F_human (equation result) ([19]; From Dog): 66.28; F_human (equation result) ([19]; From Mouse): 65.16; F_human (equation result) ([19]; From Rat): 59.26; human Ka ([19]; estimated assuming Tmax in a human is 1 hour, value set): 2.8 h⁻¹; human F calculated by literature equation ([19]; from dog): ~0.66; human F calculated by literature equation ([19]; from mouse): about 0.65; human F calculated by literature equation ([19]; from rat): ~0.59; CL Clearance, Predicted Value ([19]; predicted for a 70 kg human): 8.95 L/h; F Absolute bioavailability, Predicted Value ([19]; predicted for a 70 kg human): 0.6; Ka The first-order absorption rate constant, Predicted Value ([19]; predicted for a 70 kg human): 2.8 h⁻¹; Q Intercompartmental clearance, Predicted Value ([19]; predicted for a 70 kg human): 250.52 L/h; Vc Central volume = V2, Predicted Value ([19]; predicted for a 70 kg human): 29.50 L; Vp Peripheral volume = V3, Predicted Value ([19]; predicted for a 70 kg human): 12.92 L; human F (set value) ([19]; set in consideration of the results): 0.6; maximum range of change of total area under curve (AUC) ([20]; 2.0 mpk PO): approximately 25%; AUC ([20]; oral, 0.07 mg/kg, 0.07 mpk): 11.3 ng·h/mL; AUC ([20]; oral, 0.13 mg/kg, 0.13 mpk): 19.3 ng·h/mL; AUC ([20]; oral, 0.27 mg/kg, 0.27 mpk): 38.1 ng·h/mL; AUC ([20]; oral, 0.4 mg/kg, 0.4 mpk): 55.4 ng·h/mL; AUC ([20]; oral, 0.8 mg/kg, 0.8 mpk): 109 ng·h/mL; AUC ([20]; oral, 1 mg/kg, 1.0 mpk): 136 ng·h/mL; AUC ([20]; oral, 1.4 mg/kg, 1.4 mpk): 183 ng·h/mL; AUC ([20]; oral, 1.5 mg/kg, 1.5 mpk): 203 ng·h/mL; AUC ([20]; oral, 2.5 mg/kg, 2.5 mpk): 336 ng·h/mL; AUC ([20]; oral, 2.6 mg/kg, 2.6 mpk): 355 ng·h/mL; AUC ([20]; oral, 3 mg/kg, 3.0 mpk): 403 ng·h/mL; AUC ([20]; oral, 10 mg/kg, 10 mpk): 1340 ng·h/mL; AUC ([20]; po, 2 mg/kg, 2.0 mpk): 270 ng·h/mL; bioavailability [7]: 50.6%; AUC(0-inf) ([7]; iv, 1 mg/kg): 406 ng·h/mL; C0 ([7]; iv, 1 mg/kg): 616 ng/mL; Vd ([7]; iv, 1 mg/kg): 1.9 L/kg; clearance ([7]; iv, 1 mg/kg): 42.3 mL/min/kg; half-life ([7]; iv, 1 mg/kg): 0.6 h

Q: Which “blood analysis: major parameters (WBC, neutrophil, platelet, RBC levels)” value [15] does the source give for Nc1ncn([C@@H]2O[C@H](CO)[C@@H](O)[C@H]2O)c(=O)n1 [azacytidine, reference compound] here?
A: Its value is “severe neutropenia”.
